Source: US20050020483A1, “Sigma ligands for neuronal regeneration and functional recovery” (priority 2003, published 2005)

How the values were obtained:
[1] = test system: sigma-1 site compared to the sigma-2 site; settings: (+) isomers of benzomorphan opiates; cited from earlier work
[2] = test system: SHR (spontaneous hypertensive) rats, stroke by MCA occlusion; test: Rotating pole or cylinder test after MCA occlusion (Example 1); type: in vivo, rat; settings: 0.03-10 mg/kg s.c. or p.o. from two days after MCAO for 2-8 weeks; present-tense example
Source text: Male 3 months old SHR (spontaneous hypertensive) rats are used for induction of stroke by MCA occlusion. This is the preferred strain since most stroke patients are hypertensive. The animals are anesthetized with Methohexital and a small craniectomy is made above the zygmotic arch to expose the middle cerebral artery, which is occluded with a 10-0 monofilament nylon thread distal to the origin of the striatal branches. The rats are not intubated and no catheters are inserted. Following MCA occlusion a large and reproducible infarct is obtained, leading to a robust sensorimotor deficit. The animals are kept on a 6 hr light/18 h dark cycle with free access to food and water. At two days after the MCAO the rats are treated with the compound I, II, III, IV, V, VI, VII, VIII, or IX (0.03-10 mg/kg) s.c. or p.o. and a control group is given saline for 2-8 weeks. At 2, 4, 6 and 8 weeks animals are tested in the rotating pole or cylinder test
(§1) The cylinder test (modified from Schallert and Tillerson (Innovative models of CNS disease: from molecule to therapy. Clifton, N.J., Humana, 1999) is used to quantify the forelimb use for rearing on the cylinder wall. The rats are monitored as they move freely in a 20-cm-wide clear glass cylinder. Contacts made by each forepaw with the cylinder wall while rearing are scored by a blinded observer. A total of 20 contacts are recorded for each animal, and the number of impaired (left), both, and non-impaired forelimb contacts as percentage of total contacts is calculated. Baseline for rats is achieved by measuring the contacts made by each forepaw before MCAO.

[3] = test system: NMDA-induced toxicity and seizures; settings: in vivo models; cited from earlier work
[4] = test system: spontaneously hypertensive rats exposed to permanent middle artery occlusion (MCAO); test: Cylinder test for asymmetric forelimb use after permanent MCAO (Example 2); type: in vivo, rat; settings: 0.3 mg/kg; all time points measured
Procedure: as §1
Forty three spontaneously hypertensive rats were exposed to permanent middle artery occlusion (MCAO), then divided into three treatment groups. […] At the start of treatment, and at several time points during the test, the rats were assessed for their performance in the cylinder test. […] The performance of the rats in the test was assessed one day before permanent MCAO, then at 14 days, 28 days and 59 days after permanent MCAO. The rats were monitored as they moved freely in a 20 cm-wide clear glass cylinder. Contacts made by each forepaw with the cylinder wall while rearing were scored by a blinded observer. […]

[5] = test system: rat primary neuronal cultures; settings: cited from earlier work
[6] = test system: cultured rat retinal neurons; settings: cited from earlier work
[7] = test system: spontaneously hypertensive rats exposed to permanent middle artery occlusion (MCAO); test: Rotating pole test after permanent MCAO (Example 2); type: in vivo, rat; settings: rotating pole score 0-6
Source text: A score of 6-0 is given for each direction:
6, the animal crosses the pole with no foot slips;
5, the animal crosses the pole with a few foot slips;
4, the animal crosses the pole, slipping 50% of the footsteps;
3, the animal crosses the pole with more than 50% foot slips;
2, the animal walks a bit and then rotates around the pole;
1, the animal rotates around the pole without crossing it;
0, the animal falls off the pole.
Thirty five spontaneously hypertensive rats were exposed to permanent middle artery occlusion (MCAO), then divided into three treatment groups. Starting at two days after occlusion and continuing daily until 28 days after occlusion, SA4503 was administered s.c. in doses of 0.3 mg/kg (12 rats) or 1.0 mg/kg (12 rats). In a control group (11 rats), vehicle only was administered. At the start of treatment, and at several time points during the test, the rats were assessed for their performance in the rotating pole model. This model is described in Example 1. It requires the rats to cross a horizontally suspended rotating pole having a length of 1 m. This task measures the sensory-motor performance of the animals. The animals' behaviour was recorded using a video camera and later analyzed and scored by a trained technician. The scoring ranges from 0 to 6, with 0 being very poor performance and 6 reflecting the performance of a healthy animal (without MCAO).

ischemia in gerbils = settings: cited from earlier work
[8] = hydrohalide salts, in particular the hydrochloride salt; cited from earlier work

## CC(C)=CCN1CCC2(C)c3cc(O)ccc3CC1C2C (single isomer, unassigned; (+)) [(+)pentazocine]
[1]
  affinity for the sigma-1 site compared to the sigma-2 site: nearly two orders of magnitude higher affinity for the sigma-1 site

## CCC(C/C=C/c1ccccc1)(c1ccccc1)N(C)CC1CC1 (single isomer, unassigned; (+)) [VI, (+)-N-(cyclopropylmethyl)-N-[1-ethyl-1,4-diphenyl-3(E)-butenyl]-N-methylamine]
[2]
  performance in the rotating pole test or the cylinder test versus control: perform better than the group 1 control animals

## OC(CCCN1CCN(c2ncc(F)cn2)CC1)c1ccc(F)cc1 (stereo not shown) [BMY-14802]
[3]
  protective effects against NMDA-induced toxicity and seizures: consistent with affording protective effects

## O=C(NC1CCN(Cc2ccccc2)CC1)c1ccc(I)cc1 [II, N-(N-benzylpiperidin-4-yl)-4-iodobenzaminde]
[2]
  performance in the rotating pole test or the cylinder test versus control: perform better than the group 1 control animals

## O=C(OCCN1CCOCC1)C1(c2ccccc2)CCCCC1 [III, 1-phenylcyclohexane-1-carboxylic acid-2-morpholinoethyl ester]
[2]
  performance in the rotating pole test or the cylinder test versus control: perform better than the group 1 control animals

## COc1ccc(CN2CCN(Cc3ccccc3)CC2)c(O)c1OC [IX, N-benzyl-N′-(2-hydroxy-3,4-dimethoxybenzyl)-piperazine]
[2]
  performance in the rotating pole test or the cylinder test versus control: perform better than the group 1 control animals

## COc1ccc(CCN2CCN(CCCc3ccccc3)CC2)cc1OC [SA4503, 1-(3,4-dimethoxyphenethyl)-4-(3-phenylpropyl) piperazine]
[4]
  asymmetry of paw usage: reduced to pre-MCAO levels
[5]
  suppression of hypoxia/hypoglycemia-induced neurotoxicity: significantly suppress
[2]
  performance in the rotating pole test or the cylinder test versus control: perform better than the group 1 control animals
[6]
  activity against glutamate neurotoxicity: active
[7]; 0.3 mg/kg s.c.
  total average score at day 30: 5.2
[7]; 0.3 mg/kg s.c. daily from day 2 to day 28 after MCAO
  Average Increase in Score at Day 30 (SEM): 3.5 (SEM 0.4) (p < 0.05)
[7]; 1.0 mg/kg s.c. daily from day 2 to day 28 after MCAO
  Average Increase in Score at Day 30 (SEM): 3.67 (SEM 0.48) (p < 0.05)

## COc1cccc2c1CCC(=O)N2CCCN1CCN(c2cccc(Cl)c2)CC1 [VII, 1-[3-[4-(3-chlorophenyl)piperazin-1-yl]propyl]-5-methoxy-1,2,3,4-tetrahydroquinolin-2-one]
[2]
  performance in the rotating pole test or the cylinder test versus control: perform better than the group 1 control animals

## CN(CCc1ccc(Cl)c(Cl)c1)[C@H]1CCCC[C@H]1N1CCCC1 [VIII, (−)-(1S, 2R)-N-[2-(3,4-dichlorophenyl)ethyl]-N-methyl-2-(pyrrolidin-1-yl) cyclohexylamine]
[2]
  performance in the rotating pole test or the cylinder test versus control: perform better than the group 1 control animals

## CCN(CC)CCOC(=O)C1(c2ccccc2)CCCC1 [caramiphen]
[3]
  protective effects against NMDA-induced toxicity and seizures: consistent with affording protective effects

## COCCCC/C(=N\OCCN)c1ccc(C(F)(F)F)cc1 [fluvoxamine, 5-methoxy-4′-(trifluoromethyl)valerophenone O-(2-aminoethyl)oxime]
[2]
  performance in the rotating pole test or the cylinder test versus control: perform better than the group 1 control animals

## O=C(CCCN1CCC(O)(c2ccc(Cl)cc2)CC1)c1ccc(F)cc1 [haloperidol]
[3]
  protective effects against NMDA-induced toxicity and seizures: consistent with affording protective effects

## OCCN1CCN(CCCN2c3ccccc3C=Cc3ccccc32)CC1 [opipramol]
Ischemia in gerbils
  protection against ischemia: protect against ischemia

## Fc1ccc(-n2cc(CCCCN3CCC4(CC3)OCc3ccccc34)c3ccccc32)cc1 [siramesine, 1′-[4-[1-(4-fluorophenyl)-1H-indol-3-yl]-1-butyl] spiro [isobenzofuran-1(3H),4′-piperidine]]
[2]
  performance in the rotating pole test or the cylinder test versus control: perform better than the group 1 control animals
[8]
  bioavailability: good bioavailability

## (+)SKF 10,047
[1]
  affinity for the sigma-1 site compared to the sigma-2 site: nearly two orders of magnitude higher affinity for the sigma-1 site
